According to US20250230165A1, “HETEROCYCLIC COMPOUNDS FOR USE IN THE TREATMENT OF CANCER” (ARTIOS PHARMA LIMITED, priority 2021, published 2025):

Biological target: T1, Human Polθ polymerase domain (aa1820-2590) (Homo sapiens, UniProt O75417)
T1 construct: Human Polθ polymerase domain (aa1820-2590) was expressed in E. coli; made in house; host or cells: E. coli
T1 sequence (O75417 1820-2590): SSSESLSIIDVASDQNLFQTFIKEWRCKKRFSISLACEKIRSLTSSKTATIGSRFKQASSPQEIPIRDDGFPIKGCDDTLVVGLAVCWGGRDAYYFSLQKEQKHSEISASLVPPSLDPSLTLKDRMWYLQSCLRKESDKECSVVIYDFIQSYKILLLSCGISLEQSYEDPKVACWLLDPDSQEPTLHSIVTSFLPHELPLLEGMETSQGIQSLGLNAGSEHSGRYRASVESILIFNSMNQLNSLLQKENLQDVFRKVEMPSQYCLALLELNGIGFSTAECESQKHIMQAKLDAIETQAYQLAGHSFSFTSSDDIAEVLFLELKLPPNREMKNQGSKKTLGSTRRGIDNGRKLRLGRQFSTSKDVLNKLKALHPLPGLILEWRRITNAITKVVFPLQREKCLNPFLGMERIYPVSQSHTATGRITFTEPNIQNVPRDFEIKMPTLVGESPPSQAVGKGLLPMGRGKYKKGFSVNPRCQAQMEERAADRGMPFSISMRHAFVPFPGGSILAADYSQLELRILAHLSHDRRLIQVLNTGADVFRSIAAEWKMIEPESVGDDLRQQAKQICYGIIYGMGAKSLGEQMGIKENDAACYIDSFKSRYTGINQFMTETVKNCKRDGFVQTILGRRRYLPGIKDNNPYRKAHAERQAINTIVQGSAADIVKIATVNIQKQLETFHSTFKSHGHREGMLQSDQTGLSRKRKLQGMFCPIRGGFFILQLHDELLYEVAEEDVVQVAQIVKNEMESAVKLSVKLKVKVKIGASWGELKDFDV
Experiment: Polθ Polymerase Domain Kinact/KI Assay (PicoGreen)
Type: biochemical
Details: 0.8 nM Polθ, 100 nM DNA substrate, kobs vs [I] fit for 2-step covalent inhibitor
Summary of the method: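 Time-dependent inhibition was followed by quenching reactions with EDTA at points up to 60 min, then staining product DNA with PicoGreen fluorescence. Reactions held 0.8 nM E. coli-expressed Polθ, 100 nM primed DNA substrate and […] at pH 7.5, 1% DMSO. kobs versus inhibitor concentration gave Kinact and KI.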

Compared with `Cc1cc(C(F)(F)F)cc(N2C(=O)C[C@@H]3CN(Cc4ccc5c(c4)CN(C(=O)/C=C/CN(C)C)C5)c4c(C)cccc4N(C)C(=O)[C@H]32)n1` [Example 176, (3aR,11aS)-5-((2-((E)-4-(dimethyl-amino)but-2-enoyl)isoindolin-5-yl)methyl)-6,10-dimethyl-1-(6-methyl-4-(tri-fluoromethyl)pyr-idin-2-yl)-1,3a,4,5,10,11a-hexa-hydro-2H-benzo [b]pyrrolo[2,3-f] [1,4]diazocine-2,11(3H)-dione], `Cc1cc(C(F)(F)F)cc(N2C(=O)C[C@@H]3CN(Cc4ccc(CNC(=O)/C=C/CN(C)C)cc4)c4c(C)cccc4N(C)C(=O)[C@H]32)n1` [Example 177, (E)-N-(4-(((3aR, 11aS)-6,10-dimeth-yl-1-(6-methyl-4-(trifluoromethyl)-pyridin-2-yl)-2,11-dioxo-1,2,3,3a,4, 10,11,11a-octa-hydro-5H-benzo[b]pyrrolo[2,3-f][1,4]diazocin-5-yl)-methyl)benzyl)-4-(dimethylamino)-but-2-enamide] is 5.3-fold lower in Kinact/Kl: 1.37e+06 M⁻¹ s⁻¹ for the first, 260000 M⁻¹ s⁻¹ for the second.

Compared with `Cc1cc(C(F)(F)F)cc(N2C(=O)C[C@@H]3CN(CC45CC(NC(=O)/C=C/CN(C)C)(C4)C5)c4c(C)cccc4N(C)C(=O)[C@H]32)n1` [Example 178, (E)-N-(3-(((3aR, 11aS)-6,10-dimeth-yl-1-(6-methyl-4-(trifluoromethyl)-pyridin-2-yl)-2,11-dioxo-1,2,3,3a,4, 10,11,11a-octa-hydro-5H-benzo [b]pyrrolo[2,3-f] [1,4]diazocin-5-yl)methyl)bicyclo [1.1.1]pentan-1-yl)-4-(dimethyl-amino)but-2-enamide], `Cc1cc(C(F)(F)F)cc(N2C(=O)C[C@@H]3CN(CC45CC(CNC(=O)/C=C/CN(C)C)(C4)C5)c4c(C)cccc4N(C)C(=O)[C@H]32)n1` [Example 179, (E)-N-((3-(((3aR, 11aS)-6,10-dimeth-yl-1-(6-methyl-4-(trifluoromethyl)-pyridin-2-yl)-2,11-dioxo-1,2,3,3a,4, 10,11,11a-octa-hydro-5H-benzo [b]pyrrolo[2,3-f] [1,4]diazocin-5-yl)methyl)bicyclo [1.1.1]pentan-1-yl)methyl)-4-(dimethylamino)-but-2-enamide] is 2.4-fold lower in Kinact/Kl: 1.6e+06 M⁻¹ s⁻¹ for the first, 670000 M⁻¹ s⁻¹ for the second.

`C=C(CN(C)C)C(=O)N1CC[C@@H](COCCN2C[C@H]3CC(=O)N(c4cc(C(F)(F)F)cc(C)n4)[C@@H]3C(=O)N(C)c3cccc(C)c32)C1` [Example 180, (3aR,11aS)-5-(2-(((R)-1-(2-((dimeth-ylamino)methyl)-acryloyl)pyrrolidin-3-yl)methoxy)eth-yl)-6,10-dimethyl-1-(6-methyl-4-(trifluoromethyl)-pyridin-2-yl)-1,3a,4,5,10,11a-hexahydro-2H-benzo[b]pyrrolo [2,3-f][1,4]diazo-cine-2,11(3H)-dione] and `C=C(CN(C)C)C(=O)N1CC[C@H](COCCN2C[C@H]3CC(=O)N(c4cc(C(F)(F)F)cc(C)n4)[C@@H]3C(=O)N(C)c3cccc(C)c32)C1` [Example 181, (3aR,11aS)-5-(2-(((S)-1-(2-((dimeth-ylamino)methyl)-acryloyl)pyrrolidin-3-yl)methoxy)eth-yl)-6,10-dimethyl-1-(6-methyl-4-(trifluoromethyl)-pyridin-2-yl)-1,3a,4,5,10,11a-hexahydro-2H-benzo[b]pyrrolo [2,3-f][1,4]diazo-cine-2,11(3H)-dione] are within 1.5-fold of each other in Kinact/Kl: 2.72e+06 M⁻¹ s⁻¹ for the first, 2.26e+06 M⁻¹ s⁻¹ for the second.

`C=C(CN(C)C)C(=O)N1CC(COCCN2C[C@H]3CC(=O)N(c4cc(C(F)(F)F)cc(C)n4)[C@@H]3C(=O)N(C)c3cccc(C)c32)C1` [Example 182, (3aR,11aS)-5-(2-((1-(2-((dimethyl-amino)methyl)-acryloyl)azetidin-3-yl)methoxy)eth-yl)-6,10-dimethyl-1-(6-methyl-4-(trifluoromethyl)-pyridin-2-yl)-1,3a,4,5,10,11a-hexahydro-2H-benzo[b]pyrrolo [2,3-f][1,4]diazo-cine-2,11(3H)-dione] and `C=C(CN(C)C)C(=O)N1CC(CCCCN2C[C@H]3CC(=O)N(c4cc(C(F)(F)F)cc(C)n4)[C@@H]3C(=O)N(C)c3cccc(C)c32)C1` [Example 183, (3aR,11aS)-5-(4-(1-(2-((dimethyl-amino)methyl)-acryloyl)azetidin-3-yl)butyl)-6,10-dimethyl-1-(6-methyl-4-(trifluoro-methyl)pyridin-2-yl)-1,3a,4,5,10,11a-hexahydro-2H-benzo[b]pyrrolo [2,3-f][1,4]diazo-cine-2,11(3H)-dione] are within 1.5-fold of each other in Kinact/Kl: 5.23e+06 M⁻¹ s⁻¹ for the first, 3.8e+06 M⁻¹ s⁻¹ for the second.

`C=C(CN(C)C)C(=O)NC12CC(CN3C[C@H]4CC(=O)N(c5cc(C(F)(F)F)cc(C)n5)[C@@H]4C(=O)N(C)c4cccc(C)c43)(C1)C2` [Example 184, N-(3-(((3aR,11aS)-6,10-dimethyl-1-(6-methyl-4-(trifluoromethyl)-pyridin-2-yl)-2,11-dioxo-1,2,3,3a,4, 10,11,11a-octa-hydro-5H-benzo [b]pyrrolo[2,3-f] [1,4]diazocin-5-yl)methyl)bicyclo [1.1.1]pentan-1-yl)-2-((dimethyl-amino)methyl)-acrylamide] and `C=C(CN(C)C)C(=O)NCC12CC(CN3C[C@H]4CC(=O)N(c5cc(C(F)(F)F)cc(C)n5)[C@@H]4C(=O)N(C)c4cccc(C)c43)(C1)C2` [Example 185, N-((3-(((3aR,11aS)-6,10-dimethyl-1-(6-methyl-4-(trifluoromethyl)-pyridin-2-yl)-2,11-dioxo-1,2,3,3a,4, 10,11,11a-octa-hydro-5H-benzo [b]pyrrolo[2,3-f] [1,4]diazocin-5-yl)methyl)bicyclo [1.1.1]pentan-1-yl)methyl)-2-((dimethylamino)-methyl)acrylamide] are within 1.5-fold of each other in Kinact/Kl: 1.33e+06 M⁻¹ s⁻¹ for the first, 1.27e+06 M⁻¹ s⁻¹ for the second.

Compared with `C=C(CN(C)C)C(=O)N1CC(c2ccc(CN3C[C@H]4CC(=O)N(c5cc(C(F)(F)F)cc(C)n5)[C@@H]4C(=O)N(C)c4cccc(C)c43)cc2)C1` [Example 186, (3aR,11aS)-5-(4-(1-(2-((dimethyl-amino)methyl)-acryloyl)azetidin-3-yl)benzyl)-6,10-dimethyl-1-(6-methyl-4-(trifluoro-methyl)pyridin-2-yl)-1,3a,4,5,10,11a-hexahydro-2H-benzo[b]pyrrolo [2,3-f][1,4]diazo-cine-2,11(3H)-dione], `C=C(CN(C)C)C(=O)N1CC(c2cc(CN3C[C@H]4CC(=O)N(c5cc(C(F)(F)F)cc(C)n5)[C@@H]4C(=O)N(C)c4cccc(C)c43)ccc2F)C1` [Example 187, (3aR,11aS)-5-(3-(1-(2-((dimethyl-amino)methyl)-acryloyl)azetidin-3-yl)-4-fluorobenz-yl)-6,10-dimethyl-1-(6-methyl-4-(trifluoromethyl)-pyridin-2-yl)-1,3a,4,5,10,11a-hexahydro-2H-benzo[b]pyrrolo [2,3-f][1,4]diazo-cine-2,11(3H)-dione] is 2.3-fold lower in Kinact/Kl: 3.23e+06 M⁻¹ s⁻¹ for the first, 1.41e+06 M⁻¹ s⁻¹ for the second.

`C=C(CN(C)C)C(=O)NCc1ccc(CN2C[C@H]3CC(=O)N(c4cc(C(F)(F)F)cc(C)n4)[C@@H]3C(=O)N(C)c3cccc(C)c32)cc1` [Example 189, N-(4-(((3aR,11aS)-6,10-dimethyl-1-(6-methyl-4-(trifluoromethyl)-pyridin-2-yl)-2,11-dioxo-1,2,3,3a,4, 10,11,11a-octa-hydro-5H-benzo [b]pyrrolo[2,3-f] [1,4]diazocin-5-yl)-methyl)benzyl)-2-((dimethylamino)-methyl)acrylamide] and `C=C(CN(C)C)C(=O)NCc1ccc(CN2C[C@H]3CC(=O)N(c4cc(C(F)(F)F)cc(C)n4)[C@@H]3C(=O)N(C)c3cccc(C)c32)cn1` [Example 190, N-((5-(((3aR,11aS)-6,10-dimethyl-1-(6-methyl-4-(trifluoro-methyl)pyridin-2-yl)-2,11-dioxo-1,2,3,3a,4,10,11, 11a-octahydro-5H-benzo[b]pyrrolo [2,3-f][1,4]diazo-cin-5-yl)methyl)-pyridin-2-yl)meth-yl)-2-((dimethyl-amino)methyl)-acrylamide] are within 1.5-fold of each other in Kinact/Kl: 3.35e+06 M⁻¹ s⁻¹ for the first, 2.93e+06 M⁻¹ s⁻¹ for the second.

`C=C(CN(C)C)C(=O)N1CC(OCCCN2C[C@H]3CC(=O)N(c4cc(C(F)(F)F)cc(C)n4)[C@@H]3C(=O)Nc3cccc(C)c32)C1` [Example 191, (3aR,11aS)-5-(3-((1-(2-((dimethyl-amino)methyl)-acryloyl)azetidin-3-yl)oxy)propyl)-6-methyl-1-(6-methyl-4-(trifluoro-methyl)pyridin-2-yl)-1,3a,4,5,10, 11a-hexahydro-2H-benzo[b]pyr-rolo[2,3-f][1,4] diazocine-2, 11(3H)-dione] showed a Kinact/Kl of 1.4e+06 M⁻¹ s⁻¹.
